Reference: the supplement of paper PMC13207355

Experiments:
Settings in all cases: exposure time: 72 h
E21 [1] = patient-derived glioblastoma stem cells of mesenchymal subtype; experiment: surviving fraction (nuclei count normalised to DMSO); higher = more cells surviving (less toxic)
E34 [2] = patient-derived glioblastoma stem cells of proneural subtype; experiment: as above
E28 [3] = patient-derived glioblastoma stem cells of classical subtype; experiment: as above
E57 [4] = patient-derived glioblastoma stem cells of mesenchymal subtype; experiment: as above
E31 [5] = patient-derived glioblastoma stem cells of proneural subtype; experiment: as above
E13 [6] = patient-derived glioblastoma stem cells of classical subtype; experiment: as above
FT3469 [7] = normal neural stem cell line; experiment: as above
E21 [8] = experiment: phenotypic distance (Euclidean, principal components) from DMSO controls (arbitrary units); higher = stronger morphological change
E34 [9] = experiment: as above
E28 [10] = experiment: as above
E57 [11] = experiment: as above
E31 [12] = experiment: as above
E13 [13] = experiment: as above
FT3469 [14] = experiment: as above
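Throughout, for phenotypic distance (Euclidean, principal components) from DMSO controls: cell Painting imaging in 384-well plates, CellProfiler features reduced to at least 20 principal components, Euclidean distance versus same-plate DMSO vehicle wells (0.1% v/v), median over six images per well.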
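Throughout, for surviving fraction (nuclei count normalised to DMSO): nuclei counted by high-content imaging of Hoechst-stained cells in laminin-coated 384-well plates, relative to 0.1% DMSO vehicle wells, with staurosporine as cell-death control.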

C/C=C1\NC(=O)[C@H]2CSSCC/C=C/[C@H](CC(=O)N[C@H](C(C)C)C(=O)N2)OC(=O)[C@H](C(C)C)NC1=O [Romidepsin]
Settings | phenotypic distance | surviving fraction
E13 [6], 4.1 nM | – | 0.219
E13 [6], 12.3 nM | – | 0.212
E13 [6], 37 nM | – | 0.191
E13 [6], 111.1 nM | – | 0.211
E13 [6], 333.3 nM | – | 0.169
E13 [6], 1000 nM | – | 0.0814
E13 [6], 3000 nM | – | 0.00947
E13 [13], 4.1 nM | 4.99 | –
E13 [13], 12.3 nM | 4.79 | –
E13 [13], 37 nM | 4.79 | –
E13 [13], 111.1 nM | 5.03 | –
E13 [13], 333.3 nM | 4.51 | –
E13 [13], 1000 nM | 6.31 | –
E13 [13], 3000 nM | 8.31 | –
E21 [1], 4.1 nM | – | 0.102
E21 [1], 12.3 nM | – | 0.0766
E21 [1], 37 nM | – | 0.0713
E21 [1], 111.1 nM | – | 0.0809
E21 [1], 333.3 nM | – | 0.049
E21 [1], 1000 nM | – | 0.00532
E21 [1], 3000 nM | – | 0
E21 [8], 4.1 nM | 6.02 | –
E21 [8], 12.3 nM | 7.55 | –
E21 [8], 37 nM | 7.46 | –
E21 [8], 111.1 nM | 6.75 | –
E21 [8], 333.3 nM | 7.68 | –
E21 [8], 1000 nM | 9.06 | –
E21 [8], 3000 nM | 20.2 | –
E28 [3], 4.1 nM | – | 0.157
E28 [3], 12.3 nM | – | 0.153
E28 [3], 37 nM | – | 0.138
E28 [3], 111.1 nM | – | 0.194
E28 [3], 333.3 nM | – | 0.17
E28 [3], 1000 nM | – | 0.17
E28 [3], 3000 nM | – | 0.0691
E28 [10], 4.1 nM | 4.95 | –
E28 [10], 12.3 nM | 5.55 | –
E28 [10], 37 nM | 5.4 | –
E28 [10], 111.1 nM | 4.65 | –
E28 [10], 333.3 nM | 5.39 | –
E28 [10], 1000 nM | 5.54 | –
E28 [10], 3000 nM | 6.46 | –
E31 [5], 4.1 nM | – | 0.00149
E31 [5], 12.3 nM | – | 0.0134
E31 [5], 37 nM | – | 0.00446
E31 [5], 111.1 nM | – | 0.00892
E31 [5], 333.3 nM | – | 0.00594
E31 [5], 1000 nM | – | 0.00446
E31 [5], 3000 nM | – | 0.00892
E31 [12], 4.1 nM | 12.3 | –
E31 [12], 12.3 nM | 10.3 | –
E31 [12], 37 nM | 11 | –
E31 [12], 111.1 nM | 8.91 | –
E31 [12], 333.3 nM | 7.47 | –
E31 [12], 1000 nM | 18.1 | –
E31 [12], 3000 nM | 7.62 | –
E34 [2], 4.1 nM | – | 0.302
E34 [2], 12.3 nM | – | 0.292
E34 [2], 37 nM | – | 0.271
E34 [2], 111.1 nM | – | 0.359
E34 [2], 333.3 nM | – | 0.286
E34 [2], 1000 nM | – | 0.245
E34 [2], 3000 nM | – | 0.1
E34 [9], 4.1 nM | 8.64 | –
E34 [9], 12.3 nM | 7.96 | –
E34 [9], 37 nM | 9.03 | –
E34 [9], 111.1 nM | 8.78 | –
E34 [9], 333.3 nM | 7.71 | –
E34 [9], 1000 nM | 8.57 | –
E34 [9], 3000 nM | 7.26 | –
E57 [4], 4.1 nM | – | 0.062
E57 [4], 12.3 nM | – | 0.0535
E57 [4], 37 nM | – | 0.0389
E57 [4], 111.1 nM | – | 0.0558
E57 [4], 333.3 nM | – | 0.0428
E57 [4], 1000 nM | – | 0.0349
E57 [4], 3000 nM | – | 0.00732
E57 [11], 4.1 nM | 8.58 | –
E57 [11], 12.3 nM | 7.79 | –
E57 [11], 37 nM | 9.5 | –
E57 [11], 111.1 nM | 9.16 | –
E57 [11], 333.3 nM | 8.37 | –
E57 [11], 1000 nM | 9.9 | –
E57 [11], 3000 nM | 11.1 | –
FT3469 [7], 4.1 nM | – | 0.237
FT3469 [7], 12.3 nM | – | 0.267
FT3469 [7], 37 nM | – | 0.31
FT3469 [7], 111.1 nM | – | 0.274
FT3469 [7], 333.3 nM | – | 0.321
FT3469 [7], 1000 nM | – | 0.123
FT3469 [7], 3000 nM | – | 0.0672
FT3469 [14], 4.1 nM | 3.71 | –
FT3469 [14], 12.3 nM | 2.82 | –
FT3469 [14], 37 nM | 3.47 | –
FT3469 [14], 111.1 nM | 2.86 | –
FT3469 [14], 333.3 nM | 3.77 | –
FT3469 [14], 1000 nM | 5.6 | –
FT3469 [14], 3000 nM | 8.06 | –
